Experimental data: PubChem BioAssay AID238 (DTP/NCI, 2004)
Where “and” joins values, the source holds several entries; their conditions need not be identical. Equal values may be shown once. Toxic doses and inconclusive results are not listed.

System: CAF1 mice, leiomyosarcoma No.2 ip, survival T/C%
Experiment: NCI In Vivo Anticancer Drug Screen. Data for tumor model Leiomyosarcoma (No. 2) (intraperitoneal) in CAF1 mice
Conditions: endpoint: mean survival time, schedule: Q01DX010 (ip), higher = longer survival
Method: The antitumor activity of compounds was measured in mice bearing transplantable tumors. Survival or tumor size were measured and the results are expressed as the measurement made in the treated group (T) divided by the measurement made in the vehicle treated control group (C). The tumor model used in this assay is Leiomyosarcoma (No. 2) (intraperitoneal) in CAF1 mice

[1] = dose: 2.0 mg/kg/injection, vehicle: saline
[2] = dose: 4.0 mg/kg/injection, vehicle: saline
[3] = dose: 8.0 mg/kg/injection, vehicle: saline
[4] = dose: 0.25 mg/kg/injection, vehicle: saline
[5] = dose: 0.5 mg/kg/injection, vehicle: saline
[6] = dose: 1.0 mg/kg/injection, vehicle: saline
[7] = dose: 6.25 mg/kg/injection, vehicle: saline
[8] = dose: 25.0 mg/kg/injection, vehicle: saline
[9] = dose: 5.0 mg/kg/injection, vehicle: saline
[10] = dose: 10.0 mg/kg/injection, vehicle: saline
[11] = dose: 20.0 mg/kg/injection, vehicle: saline
[12] = dose: 12.5 mg/kg/injection, vehicle: saline
[13] = dose: 40.0 mg/kg/injection, vehicle: saline

CC(CCC(C)OS(C)(=O)=O)OS(C)(=O)=O (stereo not given)
T/C [1]: 104 % of control
T/C [2]: 100 % of control
T/C [3]: 103 % of control and 104 % of control
T/C (dose: 16.0 mg/kg/injection, vehicle: saline): 117 % of control

CS(=O)(=O)OCCN(CCOS(C)(=O)=O)c1ccc(N=O)cc1
T/C [4]: 221 % of control
T/C [5]: 173 % of control
T/C [6]: 113 % of control

N=[N+]=CC(=O)OCC(N)C(=O)O (stereo not given)
T/C (dose: 3.13 mg/kg/injection, vehicle: saline): 96 % of control
T/C [7]: 104 % of control
T/C [8]: 96 % of control

NC(Cc1ccc(N(CCCl)CCCl)cc1)C(=O)O (stereo not given)
T/C (dose: 2.5 mg/kg/injection, vehicle: saline): 191 % of control and 265 % of control
T/C [9]: 166 % of control and 207 % of control
T/C [10]: 150 % of control and 258 % of control
T/C [11]: 192 % of control

COc1ccc2c(c1OC)C(=O)O[C@@H]2[C@H]1c2c(cc3c(c2OC)OCO3)CCN1C
T/C (dose: 31.3 mg/kg/injection, vehicle: saline): 92 % of control

O=C(O)CCCc1ccc(N(CCCl)CCCl)cc1
T/C [7]: 153 % of control and 279 % of control
T/C [12]: 203 % of control and 225 % of control

CS(=O)(=O)OCCCl
T/C (dose: 18.8 mg/kg/injection, vehicle: saline): 100 % of control
T/C (dose: 37.5 mg/kg/injection, vehicle: saline): 111 % of control
T/C (dose: 75.0 mg/kg/injection, vehicle: saline): 116 % of control
T/C (dose: 150.0 mg/kg/injection, vehicle: saline): 220 % of control and 269 % of control

Nc1nc(N)c2nc(CNc3ccc(C(=O)NC(CCC(=O)O)C(=O)O)cc3)cnc2n1 (stereo not given)
T/C (dose: 0.03 mg/kg/injection, vehicle: other): 103 % of control and 110 % of control
T/C (dose: 0.05 mg/kg/injection, vehicle: other): 106 % of control
T/C (dose: 0.1 mg/kg/injection, vehicle: other): 106 % of control and 107 % of control
T/C (dose: 0.2 mg/kg/injection, vehicle: other): 110 % of control

Cc1cc(N(CCCl)CCCl)ccc1N=Nc1ccccc1C(=O)O
T/C [10]: 150 % of control and 183 % of control
T/C [11]: 175 % of control
T/C [13]: 104 % of control and 225 % of control

CCN(CC)CCNc1ccc(C)c2sc3ccccc3c(=O)c12
T/C [12]: 116 % of control
T/C [8]: 100 % of control and 116 % of control
T/C (dose: 50.0 mg/kg/injection, vehicle: saline): 103 % of control
T/C (dose: 100.0 mg/kg/injection, vehicle: saline): 154 % of control

CCOC(=O)c1[nH]c2ccccc2c1CN(CCCl)CCCl
T/C [10]: 116 % of control
T/C [11]: 170 % of control
T/C [13]: 150 % of control

CCCNc1ncnc2[nH]ncc12
T/C [7]: 114 % of control
T/C [12]: 88 % of control and 90 % of control

Nc1nc(=S)c2ncn(C3OC(CO)C(O)C3O)c2[nH]1 (stereo not given)
T/C [6]: 258 % of control
T/C [1]: 197 % of control and 204 % of control
T/C [2]: 118 % of control
T/C [3]: 90 % of control

Nc1nc(=S)c2[nH]cnc2[nH]1
T/C (dose: 1.25 mg/kg/injection, vehicle: saline): 300 % of control
T/C [9]: 93 % of control

C1CN1c1nc(N2CC2)nc(N2CC2)n1
T/C (dose: 0.13 mg/kg/injection, vehicle: saline): 117 % of control
T/C [4]: 121 % of control
T/C [5]: 196 % of control and 233 % of control

CN(C)c1ccc(Nc2c3ccccc3nc3ccccc23)cc1
T/C (dose: 36.0 mg/kg/injection, vehicle: saline): 121 % of control
T/C (dose: 54.0 mg/kg/injection, vehicle: saline): 121 % of control
T/C (dose: 80.0 mg/kg/injection, vehicle: saline): 300 % of control
T/C (dose: 120.0 mg/kg/injection, vehicle: saline): 300 % of control
